According to ChEMBL document CHEMBL5518215, “Unlocking Antibacterial Potential: Key-Site-Based Regulation of Antibacterial Spectrum of Peptides” (J Med Chem, 2024):

Tests used:
[1] = test system: Staphylococcus epidermidis; assay: Antimicrobial activity against Staphylococcus epidermidis 12228 assessed as bacterial killing measured after 16 hrs incubation; type: functional
Salmonella typhimurium [2] = assay: Antimicrobial activity against Salmonella typhimurium 14028 assessed as bacterial killing measured after 16 hrs incubation; type: functional, Salmonella enterica subsp. enterica serovar Typhimurium; conditions: Salmonella enterica
Escherichia coli [3] = assay: Antimicrobial activity against Escherichia coli 25922 assessed as absence bacterial growth measured after 18 to 24 hrs incubation in presence of MgCl2 by NCCLS method; type: functional; conditions: time 18-24 hrs
Salmonella typhimurium [4] = assay: Antimicrobial activity against Salmonella typhimurium 14028 assessed as absence bacterial growth measured after 18 to 24 hrs incubation by NCCLS method; type: functional, Salmonella enterica subsp. enterica serovar Typhimurium; conditions: Salmonella enterica, time 18-24 hrs
Escherichia coli [5] = assay: Antimicrobial activity against Escherichia coli K88 assessed as absence bacterial growth measured after 18 to 24 hrs incubation by NCCLS method; type: functional; conditions: time 18-24 hrs
Escherichia coli [6] = assay: Antimicrobial activity against Escherichia coli 25922 assessed as absence bacterial growth measured after 18 to 24 hrs incubation in presence of ZnCl2 by NCCLS method; type: functional; conditions: time 18-24 hrs
Escherichia coli [7] = assay: Antimicrobial activity against Escherichia coli 25922 assessed as absence bacterial growth measured after 18 to 24 hrs incubation in presence of NaCl by NCCLS method; type: functional; conditions: time 18-24 hrs
Staphylococcus aureus [8] = assay: Antimicrobial activity against Methicillin-resistant Staphylococcus aureus 43300 assessed as absence bacterial growth measured after 18 to 24 hrs incubation by NCCLS method; type: functional; conditions: time 18-24 hrs
Salmonella typhimurium [9] = assay: Antimicrobial activity against Salmonella typhimurium C7731 assessed as bacterial killing measured after 16 hrs incubation; type: functional, Salmonella enterica subsp. enterica serovar Typhimurium; conditions: Salmonella enterica
Erythrocyte = assay: Hemolytic activity in human RBC at effective concentration measured after 1 hr by microplate reader analysis; type: toxicity, cell-based
[10] = test system: Staphylococcus epidermidis; assay: Antimicrobial activity against Staphylococcus epidermidis 12228 assessed as absence bacterial growth measured after 18 to 24 hrs incubation by NCCLS method; type: functional; conditions: time 18-24 hrs
[11] = Antimicrobial activity against Salmonella pullorum C7913 assessed as bacterial killing measured after 16 hrs incubation; type: functional, Salmonella enterica subsp. enterica serovar Pullorum; conditions: Salmonella enterica
Enterococcus faecalis [12] = assay: Antimicrobial activity against Enterococcus faecalis 29212 assessed as bacterial killing measured after 16 hrs incubation; type: functional
[13] = Cytotoxicity against porcine IPEC-J2 cells assessed as cell survival rate measured after 8 hrs by MTT assay; type: toxicity, cell-based, Sus scrofa; conditions: pig
Escherichia coli [14] = assay: Antimicrobial activity against Escherichia coli 25922 assessed as bacterial killing measured after 16 hrs incubation; type: functional
Escherichia coli [15] = assay: Antimicrobial activity against Escherichia coli 25922 assessed as absence bacterial growth measured after 18 to 24 hrs incubation in presence of 12.5% serum by NCCLS method; type: functional; conditions: time 18-24 hrs
Escherichia coli [16] = assay: Antimicrobial activity against Escherichia coli 25922 assessed as absence bacterial growth measured after 18 to 24 hrs incubation in presence of 50% serum by NCCLS method; type: functional; conditions: time 18-24 hrs
Staphylococcus aureus [17] = assay: Antimicrobial activity against Staphylococcus aureus 29213 assessed as bacterial killing measured after 16 hrs incubation; type: functional
[18] = Cytotoxicity against human HEK-293T cells assessed as cell survival rate measured after 8 hrs by MTT assay; type: toxicity, cell-based
Escherichia coli [19] = assay: Antimicrobial activity against Escherichia coli 25922 assessed as absence bacterial growth measured after 18 to 24 hrs incubation in presence of 25% serum by NCCLS method; type: functional; conditions: time 18-24 hrs
Acinetobacter baumannii [20] = assay: Antimicrobial activity against Acinetobacter baumannii 1.6769 assessed as absence bacterial growth measured after 18 to 24 hrs incubation by NCCLS method; type: functional; conditions: time 18-24 hrs
Staphylococcus aureus [21] = assay: Antimicrobial activity against Staphylococcus aureus 29213 assessed as absence bacterial growth measured after 18 to 24 hrs incubation by NCCLS method; type: functional; conditions: time 18-24 hrs
Staphylococcus aureus [22] = assay: Antimicrobial activity against Methicillin-resistant Staphylococcus aureus 43300 assessed as bacterial killing measured after 16 hrs incubation; type: functional
Staphylococcus aureus [23] = assay: Antimicrobial activity against Staphylococcus aureus 29213 assessed as absence bacterial growth measured after 18 to 24 hrs incubation by NCCLS m; type: functional; conditions: time 18-24 hrs
Pseudomonas aeruginosa [24] = assay: Antimicrobial activity against Pseudomonas aeruginosa 27853 assessed as bacterial killing measured after 16 hrs incubation; type: functional
Bacillus cereus [25] = assay: Antimicrobial activity against Bacillus cereus 1.932 assessed as bacterial killing measured after 16 hrs incubation; type: functional
Staphylococcus aureus [26] = assay: Antimicrobial activity against Staphylococcus aureus 25923 assessed as bacterial killing measured after 16 hrs incubation; type: functional
Bacillus cereus [27] = assay: Antimicrobial activity against Bacillus cereus 1.932 assessed as absence bacterial growth measured after 18 to 24 hrs incubation by NCCLS method; type: functional; conditions: time 18-24 hrs
Escherichia coli [28] = assay: Antimicrobial activity against Escherichia coli 25922 assessed as absence bacterial growth measured after 18 to 24 hrs incubation by NCCLS method; type: functional; conditions: time 18-24 hrs
Escherichia coli [29] = assay: Antimicrobial activity against Escherichia coli 25922 assessed as absence bacterial growth measured after 18 to 24 hrs incubation in presence of KCl by NCCLS method; type: functional; conditions: time 18-24 hrs
Salmonella typhimurium [30] = assay: Antimicrobial activity against Salmonella typhimurium C7731 assessed as absence bacterial growth measured after 18 to 24 hrs incubation by NCCLS method; type: functional, Salmonella enterica subsp. enterica serovar Typhimurium; conditions: Salmonella enterica, time 18-24 hrs
[31] = Cytotoxicity against mouse RAW264.7 cells assessed as cell survival rate measured after 8 hrs by MTT assay; type: toxicity, cell-based
Escherichia coli [32] = assay: Antimicrobial activity against Escherichia coli K88 assessed as bacterial killing measured after 16 hrs incubation; type: functional
Escherichia coli [33] = assay: Antimicrobial activity against Escherichia coli 25922 assessed as absence bacterial growth measured after 18 to 24 hrs incubation in presence of NH4Cl by NCCLS method; type: functional; conditions: time 18-24 hrs
Escherichia coli [34] = assay: Antimicrobial activity against Escherichia coli 25922 assessed as absence bacterial growth measured after 18 to 24 hrs incubation in presence of FeCl3 by NCCLS method; type: functional; conditions: time 18-24 hrs
Listeria monocytogenes [35] = assay: Antimicrobial activity against Listeria monocytogenes 1.10753 assessed as absence bacterial growth measured after 18 to 24 hrs incubation by NCCLS method; type: functional; conditions: time 18-24 hrs
Listeria monocytogenes [36] = assay: Antimicrobial activity against Listeria monocytogenes 1.10753 assessed as bacterial killing measured after 16 hrs incubation; type: functional
[37] = Antimicrobial activity against Salmonella pullorum C7913 assessed as absence bacterial growth measured after 18 to 24 hrs incubation by NCCLS method; type: functional, Salmonella enterica subsp. enterica serovar Pullorum; conditions: Salmonella enterica, time 18-24 hrs
Acinetobacter baumannii [38] = assay: Antimicrobial activity against Acinetobacter baumannii 1.6769 assessed as bacterial killing measured after 16 hrs incubation; type: functional
Enterococcus faecalis [39] = assay: Antimicrobial activity against Enterococcus faecalis 29212 assessed as absence bacterial growth measured after 18 to 24 hrs incubation by NCCLS method; type: functional; conditions: time 18-24 hrs
Pseudomonas aeruginosa [40] = assay: Antimicrobial activity against Pseudomonas aeruginosa 27853 assessed as absence bacterial growth measured after 18 to 24 hrs incubation by NCCLS method; type: functional; conditions: time 18-24 hrs

Substance: H-GKLWLKGIKLWLKGGKLWLKG-NH2
- MBC [1]: 4 µM
- MBC (Salmonella typhimurium [2]): 2 µM
- MIC (Escherichia coli [3]): 8 µM
- MIC (Salmonella typhimurium [4]): 2 µM
- MIC (Escherichia coli [5]): 1 µM
- MIC (Escherichia coli [6]): 2 µM
- MIC (Escherichia coli [7]): 4 µM
- MIC (Staphylococcus aureus [8]): 2 µM
- MBC (Salmonella typhimurium [9]): 8 µM
- HC10 (Erythrocyte): 64 µM
- MIC [10]: 4 µM
- MBC [11]: 1 µM
- MBC (Enterococcus faecalis [12]): 8 µM
- IC50 at 8 h [13]: 18.9 µM
- MBC (Escherichia coli [14]): 2 µM
- MIC (Escherichia coli [15]): 16 µM
- MIC (Escherichia coli [16]): > 32 µM
- MBC (Staphylococcus aureus [17]): 8 µM
- IC50 at 8 h [18]: 33.5 µM
- MIC (Escherichia coli [19]): > 32 µM
- MIC (Acinetobacter baumannii [20]): 2 µM
- MIC (Staphylococcus aureus [21]): 8 µM
- MBC (Staphylococcus aureus [22]): 2 µM
- MIC (Staphylococcus aureus [23]): 4 µM
- MBC (Pseudomonas aeruginosa [24]): 8 µM
- MBC (Bacillus cereus [25]): 2 µM
- MBC (Staphylococcus aureus [26]): 4 µM
- MIC (Bacillus cereus [27]): 2 µM
- MIC (Escherichia coli [28]): 2 µM
- MIC (Escherichia coli [29]): 2 µM
- MIC (Salmonella typhimurium [30]): 8 µM
- IC50 at 8 h [31]: 36.9 µM
- MBC (Escherichia coli [32]): 1 µM
- MIC (Escherichia coli [33]): 2 µM
- MIC (Escherichia coli [34]): 2 µM
- MIC (Listeria monocytogenes [35]): > 32 µM
- MBC (Listeria monocytogenes [36]): > 32 µM
- MIC [37]: 1 µM
- MBC (Acinetobacter baumannii [38]): 2 µM
- MIC (Enterococcus faecalis [39]): 4 µM
- MIC (Pseudomonas aeruginosa [40]): 4 µM

Substance: H-GKLWLKGLKLWLKGGKLWLKG-NH2
- MBC [1]: 4 µM
- MBC (Salmonella typhimurium [2]): 1 µM
- MIC (Escherichia coli [3]): 4 µM
- MIC (Salmonella typhimurium [4]): 1 µM
- MIC (Escherichia coli [5]): 1 µM
- MIC (Escherichia coli [6]): 2 µM
- MIC (Escherichia coli [7]): 4 µM
- MIC (Staphylococcus aureus [8]): 2 µM
- MBC (Salmonella typhimurium [9]): 16 µM
- HC10 (Erythrocyte): 64 µM
- MIC [10]: 2 µM
- MBC [11]: 1 µM
- MBC (Enterococcus faecalis [12]): 4 µM
- IC50 at 8 h [13]: 21.1 µM
- MBC (Escherichia coli [14]): 2 µM
- MIC (Escherichia coli [15]): 16 µM
- MIC (Escherichia coli [16]): > 32 µM
- MBC (Staphylococcus aureus [17]): 4 µM
- IC50 at 8 h [18]: 47.2 µM
- MIC (Escherichia coli [19]): > 32 µM
- MIC (Acinetobacter baumannii [20]): 2 µM
- MIC (Staphylococcus aureus [21]): 4 µM
- MBC (Staphylococcus aureus [22]): 2 µM
- MIC (Staphylococcus aureus [23]): 4 µM
- MBC (Pseudomonas aeruginosa [24]): 32 µM
- MBC (Bacillus cereus [25]): 4 µM
- MBC (Staphylococcus aureus [26]): 8 µM
- MIC (Bacillus cereus [27]): 4 µM
- MIC (Escherichia coli [28]): 2 µM
- MIC (Escherichia coli [29]): 2 µM
- MIC (Salmonella typhimurium [30]): 4 µM
- IC50 at 8 h [31]: 32.7 µM
- MBC (Escherichia coli [32]): 1 µM
- MIC (Escherichia coli [33]): 2 µM
- MIC (Escherichia coli [34]): 2 µM
- MIC (Listeria monocytogenes [35]): > 32 µM
- MBC (Listeria monocytogenes [36]): > 32 µM
- MIC [37]: 1 µM
- MBC (Acinetobacter baumannii [38]): 2 µM
- MIC (Enterococcus faecalis [39]): 4 µM
- MIC (Pseudomonas aeruginosa [40]): 4 µM

Substance: H-GKLWLKGMKLWLKGGKLWLKG-NH2
- MBC [1]: 4 µM
- MBC (Salmonella typhimurium [2]): 2 µM
- MIC (Escherichia coli [3]): 8 µM
- MIC (Salmonella typhimurium [4]): 2 µM
- MIC (Escherichia coli [5]): 1 µM
- MIC (Escherichia coli [6]): 2 µM
- MIC (Escherichia coli [7]): 8 µM
- MIC (Staphylococcus aureus [8]): 2 µM
- MBC (Salmonella typhimurium [9]): 8 µM
- HC10 (Erythrocyte): 128 µM
- MIC [10]: 4 µM
- MBC [11]: 1 µM
- MBC (Enterococcus faecalis [12]): 8 µM
- IC50 at 8 h [13]: 21 µM
- MBC (Escherichia coli [14]): 2 µM
- MIC (Escherichia coli [15]): 32 µM
- MIC (Escherichia coli [16]): > 32 µM
- MBC (Staphylococcus aureus [17]): 4 µM
- IC50 at 8 h [18]: > 64 µM
- MIC (Escherichia coli [19]): > 32 µM
- MIC (Acinetobacter baumannii [20]): 1 µM
- MIC (Staphylococcus aureus [21]): 4 µM
- MBC (Staphylococcus aureus [22]): 2 µM
- MIC (Staphylococcus aureus [23]): 4 µM
- MBC (Pseudomonas aeruginosa [24]): 8 µM
- MBC (Bacillus cereus [25]): 2 µM
- MBC (Staphylococcus aureus [26]): 16 µM
- MIC (Bacillus cereus [27]): 1 µM
- MIC (Escherichia coli [28]): 2 µM
- MIC (Escherichia coli [29]): 2 µM
- MIC (Salmonella typhimurium [30]): 4 µM
- IC50 at 8 h [31]: > 64 µM
- MBC (Escherichia coli [32]): 1 µM
- MIC (Escherichia coli [33]): 2 µM
- MIC (Escherichia coli [34]): 2 µM
- MIC (Listeria monocytogenes [35]): > 32 µM
- MBC (Listeria monocytogenes [36]): > 32 µM
- MIC [37]: 1 µM
- MBC (Acinetobacter baumannii [38]): 1 µM
- MIC (Enterococcus faecalis [39]): 4 µM
- MIC (Pseudomonas aeruginosa [40]): 4 µM
